# Experimental data from PubChem BioAssay (NCI).
#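 How tested: cells in 96-well plates exposed to compound for 48 hours at five concentrations. TGI marks complete inhibition of growth.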 Where a SMILES comes first, the peptide text is derived from it. [ ]: non-standard residue; d: D form. Ac5c = NC1(C(=O)O)CCCC1
# Legend:
# Experiment in all cases: inhibition of tumour cell growth, NCI panel, 48 h
# NCI/ADR-RES ovarian = test system: NCI/ADR-RES ovarian
# A549 NSCLC = test system: A549 NSCLC
# U251 CNS = test system: U251 CNS
# T-47D breast = test system: T-47D breast
# HT29 colon = test system: HT29 colon
# K-562 leukemia = test system: K-562 leukemia
# NCI-H23 lung = test system: NCI-H23 lung
# CCRF-CEM leukemia = test system: CCRF-CEM leukemia
# EKVX NSCLC = test system: EKVX NSCLC
# SR leukemia = test system: SR leukemia
# UACC-62 melanoma = test system: UACC-62 melanoma
# HL-60(TB) leukemia = test system: HL-60(TB) leukemia
# NCI-H460 lung = test system: NCI-H460 lung
# OVCAR-5 ovarian = test system: OVCAR-5 ovarian
# SK-MEL-2 melanoma = test system: SK-MEL-2 melanoma
# NCI-H522 lung = test system: NCI-H522 lung
# HCT-15 colon = test system: HCT-15 colon
# LOX IMVI melanoma = test system: LOX IMVI melanoma
# MOLT-4 leukemia = test system: MOLT-4 leukemia
# DU-145 prostate = test system: DU-145 prostate
# MALME-3M melanoma = test system: MALME-3M melanoma
# HCT-116 colon = test system: HCT-116 colon
# HOP-62 NSCLC = test system: HOP-62 NSCLC
# SW-620 colon = test system: SW-620 colon
# SN12C renal = test system: SN12C renal
# ACHN renal = test system: ACHN renal
# SK-MEL-28 melanoma = test system: SK-MEL-28 melanoma
# MDA-N = test system: MDA-N
# OVCAR-8 ovarian = test system: OVCAR-8 ovarian
# SF-539 CNS = test system: SF-539 CNS
# HOP-92 NSCLC = test system: HOP-92 NSCLC
# IGROV1 ovarian = test system: IGROV1 ovarian
# MDA-MB-231 breast = test system: MDA-MB-231 breast
# OVCAR-4 ovarian = test system: OVCAR-4 ovarian
# OVCAR-3 ovarian = test system: OVCAR-3 ovarian
# SF-295 CNS = test system: SF-295 CNS
# A498 renal = test system: A498 renal
# SF-268 CNS = test system: SF-268 CNS
# COLO 205 colon = test system: COLO 205 colon
# CAKI-1 renal = test system: CAKI-1 renal
# UO-31 renal = test system: UO-31 renal
# KM12 colon = test system: KM12 colon
# UACC-257 melanoma = test system: UACC-257 melanoma
# RXF 393 renal = test system: RXF 393 renal
# PC-3 prostate = test system: PC-3 prostate
# RPMI-8226 leukemia = test system: RPMI-8226 leukemia
# SNB-19 CNS = test system: SNB-19 CNS
# NCI-H226 lung = test system: NCI-H226 lung
# MCF7 breast = test system: MCF7 breast
# SK-MEL-5 melanoma = test system: SK-MEL-5 melanoma
# HCC-2998 colon = test system: HCC-2998 colon
# BT-549 breast = test system: BT-549 breast
# 786-0 renal = test system: 786-0 renal
# SK-OV-3 ovarian = test system: SK-OV-3 ovarian
# MDA-MB-435 = test system: MDA-MB-435
# TK-10 renal = test system: TK-10 renal
# HS 578T breast = test system: HS 578T breast
# M14 melanoma = test system: M14 melanoma
# SNB-75 CNS = test system: SNB-75 CNS
smiles,measurement,setting,value
O=C1C=CC(=O)N1n1c(Cc2ccccc2)n[nH]c1=O,TGI,NCI/ADR-RES ovarian,> 100 µM
same,TGI,A549 NSCLC,> 100 µM
same,TGI,U251 CNS,> 100 µM
same,TGI,T-47D breast,> 100 µM
same,TGI,HT29 colon,> 100 µM
same,TGI,K-562 leukemia,> 100 µM
same,TGI,NCI-H23 lung,> 100 µM
same,TGI,CCRF-CEM leukemia,> 100 µM
same,TGI,EKVX NSCLC,> 100 µM
same,TGI,SR leukemia,> 100 µM
same,TGI,UACC-62 melanoma,> 100 µM
same,TGI,HL-60(TB) leukemia,> 100 µM
same,TGI,NCI-H460 lung,> 100 µM
same,TGI,OVCAR-5 ovarian,> 100 µM
same,TGI,SK-MEL-2 melanoma,> 100 µM
same,TGI,NCI-H522 lung,> 100 µM
same,TGI,HCT-15 colon,> 100 µM
same,TGI,LOX IMVI melanoma,> 100 µM
same,TGI,MOLT-4 leukemia,> 100 µM
same,TGI,DU-145 prostate,> 100 µM
same,TGI,MALME-3M melanoma,> 100 µM
same,TGI,HCT-116 colon,> 100 µM
same,TGI,HOP-62 NSCLC,> 100 µM
same,TGI,SW-620 colon,> 100 µM
same,TGI,SN12C renal,> 100 µM
same,TGI,ACHN renal,> 100 µM
same,TGI,SK-MEL-28 melanoma,> 100 µM
same,TGI,MDA-N,> 100 µM
same,TGI,OVCAR-8 ovarian,> 100 µM
same,TGI,SF-539 CNS,> 100 µM
same,TGI,HOP-92 NSCLC,> 100 µM
same,TGI,IGROV1 ovarian,> 100 µM
same,TGI,MDA-MB-231 breast,> 100 µM
same,TGI,OVCAR-4 ovarian,> 100 µM
same,TGI,OVCAR-3 ovarian,> 100 µM
same,TGI,SF-295 CNS,> 100 µM
same,TGI,A498 renal,> 100 µM
same,TGI,SF-268 CNS,> 100 µM
same,TGI,COLO 205 colon,> 100 µM
same,TGI,CAKI-1 renal,> 100 µM
same,TGI,UO-31 renal,> 100 µM
same,TGI,KM12 colon,> 100 µM
same,TGI,UACC-257 melanoma,> 100 µM
same,TGI,RXF 393 renal,> 100 µM
same,TGI,PC-3 prostate,> 100 µM
same,TGI,RPMI-8226 leukemia,> 100 µM
same,TGI,SNB-19 CNS,> 100 µM
same,TGI,NCI-H226 lung,> 100 µM
same,TGI,MCF7 breast,> 100 µM
same,TGI,SK-MEL-5 melanoma,> 100 µM
same,TGI,HCC-2998 colon,> 100 µM
same,TGI,BT-549 breast,> 100 µM
same,TGI,786-0 renal,> 100 µM
same,TGI,SK-OV-3 ovarian,> 100 µM
same,TGI,MDA-MB-435,> 100 µM
same,TGI,TK-10 renal,> 100 µM
same,TGI,HS 578T breast,> 100 µM
O=C(O)CCc1nc2c(n1Cc1ccccc1)C(=O)c1ccccc1C2=O,TGI,NCI/ADR-RES ovarian,> 100 µM
same,TGI,A549 NSCLC,> 100 µM
same,TGI,U251 CNS,> 100 µM
same,TGI,T-47D breast,> 100 µM
same,TGI,HT29 colon,> 100 µM
same,TGI,K-562 leukemia,> 100 µM
same,TGI,NCI-H23 lung,> 100 µM
same,TGI,CCRF-CEM leukemia,> 100 µM
same,TGI,EKVX NSCLC,> 100 µM
same,TGI,SR leukemia,> 100 µM
same,TGI,UACC-62 melanoma,> 100 µM
same,TGI,HL-60(TB) leukemia,> 100 µM
same,TGI,NCI-H460 lung,> 100 µM
same,TGI,OVCAR-5 ovarian,> 100 µM
same,TGI,SK-MEL-2 melanoma,78.1 µM
same,TGI,NCI-H522 lung,72.1 µM
same,TGI,HCT-15 colon,> 100 µM
same,TGI,LOX IMVI melanoma,> 100 µM
same,TGI,MOLT-4 leukemia,> 100 µM
same,TGI,DU-145 prostate,> 100 µM
same,TGI,HCT-116 colon,> 100 µM
same,TGI,HOP-62 NSCLC,> 100 µM
same,TGI,SW-620 colon,> 100 µM
same,TGI,SN12C renal,> 100 µM
same,TGI,ACHN renal,> 100 µM
same,TGI,SK-MEL-28 melanoma,> 100 µM
same,TGI,MDA-N,52.8 µM
same,TGI,OVCAR-8 ovarian,> 100 µM
same,TGI,SF-539 CNS,> 100 µM
same,TGI,HOP-92 NSCLC,66.4 µM
same,TGI,IGROV1 ovarian,> 100 µM
same,TGI,MDA-MB-231 breast,> 100 µM
same,TGI,OVCAR-4 ovarian,> 100 µM
same,TGI,OVCAR-3 ovarian,85.9 µM
same,TGI,SF-295 CNS,> 100 µM
same,TGI,A498 renal,> 100 µM
same,TGI,SF-268 CNS,> 100 µM
same,TGI,COLO 205 colon,> 100 µM
same,TGI,CAKI-1 renal,> 100 µM
same,TGI,UO-31 renal,> 100 µM
same,TGI,M14 melanoma,50.7 µM
same,TGI,KM12 colon,> 100 µM
same,TGI,SNB-75 CNS,> 100 µM
same,TGI,UACC-257 melanoma,> 100 µM
same,TGI,RXF 393 renal,> 100 µM
same,TGI,PC-3 prostate,> 100 µM
same,TGI,RPMI-8226 leukemia,> 100 µM
same,TGI,SNB-19 CNS,> 100 µM
same,TGI,NCI-H226 lung,> 100 µM
same,TGI,MCF7 breast,> 100 µM
same,TGI,SK-MEL-5 melanoma,43.5 µM
same,TGI,HCC-2998 colon,> 100 µM
same,TGI,BT-549 breast,> 100 µM
same,TGI,786-0 renal,> 100 µM
same,TGI,SK-OV-3 ovarian,> 100 µM
same,TGI,MDA-MB-435,35.8 µM
same,TGI,TK-10 renal,> 100 µM
same,TGI,HS 578T breast,> 100 µM
NCC(=O)NC1(C(=O)O)CCCC1 (H-Gly-[Ac5c]-OH),TGI,NCI/ADR-RES ovarian,> 100 µM
same,TGI,A549 NSCLC,> 100 µM
same,TGI,U251 CNS,> 100 µM
same,TGI,T-47D breast,> 100 µM
same,TGI,HT29 colon,> 100 µM
same,TGI,K-562 leukemia,> 100 µM
same,TGI,NCI-H23 lung,> 100 µM
same,TGI,EKVX NSCLC,> 100 µM
same,TGI,SR leukemia,> 100 µM
same,TGI,UACC-62 melanoma,> 100 µM
same,TGI,NCI-H460 lung,> 100 µM
same,TGI,OVCAR-5 ovarian,> 100 µM
same,TGI,SK-MEL-2 melanoma,> 100 µM
same,TGI,NCI-H522 lung,> 100 µM
same,TGI,HCT-15 colon,> 100 µM
same,TGI,LOX IMVI melanoma,> 100 µM
same,TGI,MOLT-4 leukemia,> 100 µM
same,TGI,DU-145 prostate,> 100 µM
same,TGI,MALME-3M melanoma,> 100 µM
same,TGI,HCT-116 colon,> 100 µM
same,TGI,HOP-62 NSCLC,> 100 µM
same,TGI,SW-620 colon,> 100 µM
same,TGI,SN12C renal,> 100 µM
same,TGI,ACHN renal,> 100 µM
same,TGI,SK-MEL-28 melanoma,> 100 µM
same,TGI,MDA-N,> 100 µM
same,TGI,OVCAR-8 ovarian,> 100 µM
same,TGI,SF-539 CNS,> 100 µM
same,TGI,HOP-92 NSCLC,> 100 µM
same,TGI,IGROV1 ovarian,> 100 µM
same,TGI,MDA-MB-231 breast,> 100 µM
same,TGI,OVCAR-4 ovarian,> 100 µM
same,TGI,OVCAR-3 ovarian,> 100 µM
same,TGI,SF-295 CNS,> 100 µM
same,TGI,A498 renal,> 100 µM
same,TGI,SF-268 CNS,> 100 µM
same,TGI,COLO 205 colon,> 100 µM
same,TGI,CAKI-1 renal,> 100 µM
same,TGI,UO-31 renal,> 100 µM
same,TGI,M14 melanoma,> 100 µM
same,TGI,KM12 colon,> 100 µM
same,TGI,SNB-75 CNS,> 100 µM
same,TGI,UACC-257 melanoma,> 100 µM
same,TGI,RXF 393 renal,> 100 µM
same,TGI,PC-3 prostate,> 100 µM
same,TGI,RPMI-8226 leukemia,> 100 µM
same,TGI,SNB-19 CNS,> 100 µM
same,TGI,MCF7 breast,> 100 µM
same,TGI,SK-MEL-5 melanoma,> 100 µM
same,TGI,HCC-2998 colon,> 100 µM
same,TGI,BT-549 breast,> 100 µM
same,TGI,786-0 renal,> 100 µM
same,TGI,SK-OV-3 ovarian,> 100 µM
same,TGI,MDA-MB-435,> 100 µM
same,TGI,TK-10 renal,> 100 µM
same,TGI,HS 578T breast,> 100 µM
